Measurements from patent US20200024278A1, “COMPOSITION COMPRISING ANTIBIOTIC COMPOUND AND AN HETEROCYCLIC COMPOUND AND THEIR USE IN PREVENTING OR TREATING BACTERIAL INFECTIONS” (MUTABILIS, priority 2016, published 2020).

Tests used:
ABA 107292 = assay: MIC, broth microdilution (CLSI), substance alone or ATB combined with compound at 4 or 8 μg/mL; type: cell-based, A. baumannii; details: Acinetobacter baumannii, substance alone, read-out: MIC
Procedure, shortened: (§1)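 Per CLSI-M7-A7, MICs are determined in cation-adjusted Mueller-Hinton broth with a final inoculum of 5·10^5 CFU/mL. Plates incubate 16-20 h at 35° C in air and are read by eye. Fosfomycin assays carry 25 μg/ml glucose-6-phosphate.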

ABA 19606 = assay: as above; type: cell-based, A. baumannii; details: Acinetobacter baumannii, substance alone, read-out: MIC
Procedure, shortened: as §1

ABA UFR151 = assay: as above; type: cell-based, A. baumannii; details: Acinetobacter baumannii, substance alone, read-out: MIC
Procedure, shortened: as §1

ABA UFR152 = assay: as above; type: cell-based, A. baumannii; details: Acinetobacter baumannii, substance alone, read-out: MIC
Procedure, shortened: as §1

ABA UFR153 = assay: as above; type: cell-based, A. baumannii; details: Acinetobacter baumannii, substance alone, read-out: MIC
Procedure, shortened: as §1

ABA UFR156 = assay: as above; type: cell-based, A. baumannii; details: Acinetobacter baumannii, substance alone, read-out: MIC
Procedure, shortened: as §1

ABA UFR157 = assay: as above; type: cell-based, A. baumannii; details: Acinetobacter baumannii, substance alone, read-out: MIC
Procedure, shortened: as §1

ABA UFR158 = assay: as above; type: cell-based, A. baumannii; details: Acinetobacter baumannii, substance alone, read-out: MIC
Procedure, shortened: as §1

ABA UFR159 = assay: as above; type: cell-based, A. baumannii; details: Acinetobacter baumannii, substance alone, read-out: MIC
Procedure, shortened: as §1

ABA UFR160 = assay: as above; type: cell-based, A. baumannii; details: Acinetobacter baumannii, substance alone, read-out: MIC
Procedure, shortened: as §1

ABA UFR161 = assay: as above; type: cell-based, A. baumannii; details: Acinetobacter baumannii, substance alone, read-out: MIC
Procedure, shortened: as §1

PAE UFR48 = assay: Fractional Inhibitory Concentration Index, checkerboard assay; type: cell-based, P. aeruginosa
Procedure, shortened: (§2)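 Two-agent checkerboards of 2-fold dilutions in ca-MHB were inoculated at 5.10^5 CFU/mL and incubated 18 h at 35 °C in air, in duplicate; fosfomycin wells also held 25 μg/ml glucose-6-phosphate. FICI calculated as the sum of combination/alone MIC ratios for each drug.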

PAE UFR90 = assay: as above; type: cell-based, P. aeruginosa
Procedure, shortened: as §2

KPN UFR68 = assay: as above; type: cell-based, K. pneumoniae
Procedure, shortened: as §2

ECL P99 = assay: as above; type: cell-based, E. cloacae
Procedure, shortened: as §2

ECO 190317 = assay: as above; type: cell-based, E. coli
Procedure, shortened: as §2

Row | SMILES | MIC (ABA 107292) [µg/mL] | MIC (ABA 19606) [µg/mL] | MIC (ABA UFR151) [µg/mL] | MIC (ABA UFR152) [µg/mL] | MIC (ABA UFR153) [µg/mL] | MIC (ABA UFR156) [µg/mL] | MIC (ABA UFR157) [µg/mL] | MIC (ABA UFR158) [µg/mL] | MIC (ABA UFR159) [µg/mL] | MIC (ABA UFR160) [µg/mL] | MIC (ABA UFR161) [µg/mL] | FIC index min (PAE UFR48; compound +ATM) | FIC index min (PAE UFR48; compound +FEP) | FIC index min (PAE UFR48; compound +FOS) | FIC index min (PAE UFR48; compound +MEM) | FIC index min (PAE UFR48; compound +PIP) | FIC index min (PAE UFR90; compound +ATM) | FIC index min (PAE UFR90; compound +FEP) | FIC index min (PAE UFR90; compound +FOS) | FIC index min (PAE UFR90; compound +MEM) | further results
1 | NC[C@H]1C=C(c2cnco2)[C@@H]2CN1C(=O)N2OS(=O)(=O)[O-].O=C(O)C(F)(F)F.[Na+] (relative stereo) [Example 1, sodium and 2,2,2-trifluoroacetate [trans-2-(azaniumylmethyl)-4-oxazol-5-yl-7-oxo-1,6-diazabicyclo[3.2.1]oct-3-en-6-yl] sulfate] | > 32 | > 32 | > 32 | > 32 | > 32 | > 32 | > 32 | > 32 | > 32 | > 32 | > 32 | 0.25 | 0.53 | 0.62 | 0.27 | 0.27 | 0.54 | 0.50 | 1.0 | 0.75 | FIC index min (PAE UFR90; compound +PIP): 0.88; FIC index min (KPN UFR68; compound +ATM): ≤0.023; FIC index min (KPN UFR68; compound +FEP): ≤0.0088; FIC index min (KPN UFR68; compound +FOS): ≤0.126; FIC index min (KPN UFR68; compound +MEM): ≤0.0098; FIC index min (KPN UFR68; compound +PIP): ≤0.012; FIC index min (ECL P99; compound +ATM): 0.50; FIC index min (ECL P99; compound +FEP): 0.47; FIC index min (ECL P99; compound +FOS): ≤0.3125; FIC index min (ECL P99; compound +MEM): 0.56; FIC index min (ECL P99; compound +PIP): 0.50; FIC index min (ECO 190317; compound +ATM): 0.51; FIC index min (ECO 190317; compound +FEP): 0.49; FIC index min (ECO 190317; compound +FOS): 0.37; FIC index min (ECO 190317; compound +MEM): 0.63; FIC index min (ECO 190317; compound +PIP): ≤0.38
2 | NCCON=C1C[C@@H](C(N)=O)N2C[C@@H]1N(OS(=O)(=O)[O-])C2=O.[Na+] [Example 2, sodium and 2,2,2-trifluoroacetate [(2S,5S)-4-(2-ammonium-ethoxyimino)-2-carbamoyl-7-oxo-1,6-diazabicyclo[3.2.1]octan-6-yl] sulfate] | > 32 | 16 | > 32 | > 32 | > 32 | > 32 | > 32 | > 32 | > 32 | > 32 | > 32 | 0.09 | 0.63 | 0.50 | 0.8 | 0.31 | ≤0.22 | ≤0.28 | ≤0.63 | ≤0.38 | FIC index min (PAE UFR90; compound +PIP): ≤0.15; FIC index min (KPN UFR68; compound +ATM): 0.05; FIC index min (KPN UFR68; compound +FEP): ≤0.0098; FIC index min (KPN UFR68; compound +FOS): 0.25; FIC index min (KPN UFR68; compound +MEM): 0.03; FIC index min (KPN UFR68; compound +PIP): 0.09; FIC index min (ECL P99; compound +ATM): 0.50; FIC index min (ECL P99; compound +FEP): 0.14; FIC index min (ECL P99; compound +FOS): ≤0.14; FIC index min (ECL P99; compound +MEM): 0.50; FIC index min (ECL P99; compound +PIP): 0.14; FIC index min (ECO 190317; compound +ATM): 0.08; FIC index min (ECO 190317; compound +FEP): ≤0.06; FIC index min (ECO 190317; compound +FOS): 0.56; FIC index min (ECO 190317; compound +MEM): 0.50; FIC index min (ECO 190317; compound +PIP): ≤0.25
3 | O=C1N2CC(c3ncco3)=C[C@H](C2)N1OS(=O)(=O)[O-].[Na+] [Example 9, sodium [(5R)-3-(oxazol-2-yl)-7-oxo-1,6-diazabicyclo[3.2.1]oct-3-en-6-yl] sulfate] | > 32 | > 32 | > 32 | > 32 | > 32 | > 32 | > 32 | > 32 | > 32 | > 32 | > 32 | 0.14 | 0.50 | 1.0 | 0.8 | 0.32 | ≤0.30 | ≤0.27 | ≤0.52 | ≤0.53 | FIC index min (PAE UFR90; compound +PIP): ≤0.23; FIC index min (KPN UFR68; compound +ATM): ≤0.27; FIC index min (KPN UFR68; compound +FEP): ≤0.05; FIC index min (KPN UFR68; compound +FOS): 0.50; FIC index min (KPN UFR68; compound +MEM): 0.15; FIC index min (KPN UFR68; compound +PIP): ≤0.27; FIC index min (ECL P99; compound +ATM): 0.53; FIC index min (ECL P99; compound +FEP): 0.23; FIC index min (ECL P99; compound +FOS): ≤0.19; FIC index min (ECL P99; compound +MEM): 0.88; FIC index min (ECL P99; compound +PIP): 0.20; FIC index min (ECO 190317; compound +ATM): 0.20; FIC index min (ECO 190317; compound +FEP): ≤0.07; FIC index min (ECO 190317; compound +FOS): 0.69; FIC index min (ECO 190317; compound +MEM): 0.58; FIC index min (ECO 190317; compound +PIP): ≤0.21
